Measured values taken from US9498467B2, “Treatment of chronic neutrophilic leukemia (CNL) and atypical chronic myeloid leukemia (aCML) by inhibitors of JAK1” (Incyte Corporation, priority 2014, dated 2016).

Experiments:
[1] = system: CNL carrying a JAK-activating CSF3R mutation; details: one patient with CNL carrying a JAK-activating CSF3R mutation; cited from earlier work
[2] = system: GCSF induced pSTAT3 in human neutrophils; test: JAK human neutrophil assay (pSTAT3 ELISA); details: 0.25 h, read-out: IC50 (inhibition of pSTAT3)

IC50 [2]: < 100 nM
Compound: N#CCC(C1CCCC1)n1cc(-c2ncnc3[nH]ccc23)cn1 (stereo in doubt) [ruxolitinib, (3R)-3-cyclopentyl-3-[4-(7H-pyrrolo[2,3-d]pyrimidin-4-yl)-1H-pyrazol-1-yl]propanenitrile, reference compound]
clinical improvement [1]: Marked clinical improvement
